Structures can show the parent of a compound that is named as a salt. Where two headings read alike, the source gives them in different places.
Tests used:
[1] = test system: OCTs; conditions: for Inhibition of tacrine uptake vs untreated control: 30 min pre-incubation, 1 μM tacrine 5 min, SCHs day 1
[2] = test system: OATPs; assay: OATPs inhibition study with rifampicin on tacrine cellular accumulation; type: in vitro ADME, rat; conditions: data not shown
[3] = test system: sandwich-cultured primary rat hepatocytes (SCHs)
[4] = test system: sandwich-cultured primary rat hepatocytes (SCHs); conditions: 5 min, 1 μM
[5] = test system: sandwich-cultured primary rat hepatocytes (SCHs); conditions: 1 μM
[6] = human, in vivo; cited from earlier work
[7] = test system: hepatic transaminase; conditions: human, in vivo; cited from earlier work
[8] = test system: P-gp; conditions: 5 μM valspodar, 1 μM tacrine, 10 min, SCHs day 4

CC[N+](CC)(CC)CC [TEA, tetraethylammonium chloride]
Inhibition of tacrine uptake vs untreated control ([1]; inhibitor 300 μM): ~ 18%

CN/C(=N/CCSCc1nc[nH]c1C)NC#N [cimetidine]
Inhibition of tacrine uptake vs untreated control ([1]; inhibitor 300 μM): > 50%

COCCCC/C(=N\OCCN)c1ccc(C(F)(F)F)cc1 [fluvoxamine, Fluvoxamine maleate]
Inhibition of tacrine uptake vs untreated control ([1]; inhibitor 50 μM): > 50%

CO[C@H]1/C=C/O[C@@]2(C)Oc3c(C)c(O)c4c(O)c(c(/C=N/N5CCN(C)CC5)c(O)c4c3C2=O)NC(=O)/C(C)=C\C=C\[C@H](C)[C@H](O)[C@@H](C)[C@@H](O)[C@@H](C)[C@H](OC(C)=O)[C@@H]1C [rifampicin]
Effect on tacrine cellular accumulation [2]: did not alter tacrine cellular accumulation

Nc1c2c(nc3ccccc13)CCCC2 [tacrine, 9-amino-1,2,3,4-tetrahydroacridine]
Time at which uptake reaches a plateau ([3]; 1 μM tacrine, SCHs day 1): 10 min
Uptake Vmax ([3]; SCHs, day 1, saturable uptake (37°C minus 4°C), tacrine 0.1–500 μM): 908±72 pmol/min/mg protein
Average uptake ([4]; pH 6.4): 68±4 pmol/min/mg protein
Decrease in uptake compared to neutral pH (7.4) ([4]; pH 6.4): approximately 3 fold
Average uptake ([4]; pH 7.4): 405±16 pmol/min/mg protein
Average uptake ([4]; pH 8.4): 816±62 pmol/min/mg protein
Increase in uptake compared to neutral pH (7.4) ([4]; pH 8.6): ~2 fold
Time of maximum biliary excretion [5]: 10 min
BEI% ([5]; 10 min): 22.9±1.9%
Oral bioavailability [6]: 17–24%
Patients with significantly elevated hepatic transaminase concentrations [7]: 25%

C/C=C/C[C@@H](C)C(=O)[C@H]1C(=O)N[C@@H](C(C)C)C(=O)N(C)CC(=O)N(C)[C@@H](CC(C)C)C(=O)N[C@@H](C(C)C)C(=O)N(C)[C@@H](CC(C)C)C(=O)N[C@@H](C)C(=O)N[C@H](C)C(=O)N(C)[C@@H](CC(C)C)C(=O)N(C)[C@@H](CC(C)C)C(=O)N(C)[C@@H](C(C)C)C(=O)N1C [valspodar]
Reduction of tacrine BEI% [8]: approximately 60%

COc1ccc(CCN(C)CCCC(C#N)(c2ccc(OC)c(OC)c2)C(C)C)cc1OC (stereo not shown) [verapamil, verapamil hydrochloride]
Inhibition of tacrine uptake vs untreated control ([1]; inhibitor 50 μM): > 50%
Concentration giving maximal inhibition of tacrine uptake ([1]; verapamil tested at 10, 50 and 100 μM, concentration-dependent, P<0.001): 100 µM
Reduction in tacrine uptake ([1]; verapamil, concentration not given, SCHs): 3 fold

From publication PMC7928264 (Journal of pharmacy & pharmaceutical sciences : a …, 2014)
